Among the data in patent publication US20230113037A1 (Bayer Aktiengesellschaft, priority 2019, published 2023) are IC50 values, retold here.

Where two headings read alike, the source gives them in different places.

Assay [1] concerns the target T1, AHR (Homo sapiens, UniProt P35869).
T1 construct: U87 MG glioblastoma cells (ATCC #HTB-14) endogenously expressing AHR; endogenous in cells; host or cells: U87 MG glioblastoma cells (ATCC #HTB-14)
T1 sequence (P35869 11-848): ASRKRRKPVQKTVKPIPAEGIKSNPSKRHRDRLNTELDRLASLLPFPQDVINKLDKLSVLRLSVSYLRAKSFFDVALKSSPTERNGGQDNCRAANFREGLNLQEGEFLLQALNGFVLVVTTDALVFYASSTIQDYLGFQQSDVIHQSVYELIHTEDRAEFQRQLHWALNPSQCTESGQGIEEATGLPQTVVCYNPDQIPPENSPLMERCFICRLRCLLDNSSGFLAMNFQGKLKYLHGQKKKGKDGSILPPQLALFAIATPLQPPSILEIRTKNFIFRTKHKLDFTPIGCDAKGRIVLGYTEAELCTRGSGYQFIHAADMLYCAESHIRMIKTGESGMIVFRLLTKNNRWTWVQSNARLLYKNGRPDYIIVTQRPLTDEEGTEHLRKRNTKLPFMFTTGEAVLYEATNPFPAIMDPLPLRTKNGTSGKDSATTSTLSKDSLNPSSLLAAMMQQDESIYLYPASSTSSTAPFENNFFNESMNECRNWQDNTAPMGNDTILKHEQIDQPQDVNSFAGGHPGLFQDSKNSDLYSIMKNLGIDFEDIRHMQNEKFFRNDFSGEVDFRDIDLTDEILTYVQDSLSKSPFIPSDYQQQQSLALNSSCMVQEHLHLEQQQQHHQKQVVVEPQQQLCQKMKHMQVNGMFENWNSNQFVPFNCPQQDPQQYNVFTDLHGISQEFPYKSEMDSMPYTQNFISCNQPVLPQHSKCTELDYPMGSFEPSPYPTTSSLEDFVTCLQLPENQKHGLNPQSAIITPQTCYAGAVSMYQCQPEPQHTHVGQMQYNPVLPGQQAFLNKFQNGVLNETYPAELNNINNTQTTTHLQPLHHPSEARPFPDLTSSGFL
Briefly: In vitro assay 1: antagonism in human cell line (AHR transactivation, firefly luciferase reporter, kynurenic acid prestimulated). It is filed as cell-based. The settings on record: AHR Antagonism Human IC50 [M]. The method in brief: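 U87 MG + DRE-firefly/constitutive-Renilla stable reporters; kynurenic acid prestim; dual-luc read; Renilla = tox; normalized vs pos/neg controls (pos: 150 μM KYNA + 5 μM staurosporine).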

For assay [2], the target named is T2, AHR (Mus musculus, UniProt P30561).
T2 sequence (P30561 1-848 P471L/N533S/M589L): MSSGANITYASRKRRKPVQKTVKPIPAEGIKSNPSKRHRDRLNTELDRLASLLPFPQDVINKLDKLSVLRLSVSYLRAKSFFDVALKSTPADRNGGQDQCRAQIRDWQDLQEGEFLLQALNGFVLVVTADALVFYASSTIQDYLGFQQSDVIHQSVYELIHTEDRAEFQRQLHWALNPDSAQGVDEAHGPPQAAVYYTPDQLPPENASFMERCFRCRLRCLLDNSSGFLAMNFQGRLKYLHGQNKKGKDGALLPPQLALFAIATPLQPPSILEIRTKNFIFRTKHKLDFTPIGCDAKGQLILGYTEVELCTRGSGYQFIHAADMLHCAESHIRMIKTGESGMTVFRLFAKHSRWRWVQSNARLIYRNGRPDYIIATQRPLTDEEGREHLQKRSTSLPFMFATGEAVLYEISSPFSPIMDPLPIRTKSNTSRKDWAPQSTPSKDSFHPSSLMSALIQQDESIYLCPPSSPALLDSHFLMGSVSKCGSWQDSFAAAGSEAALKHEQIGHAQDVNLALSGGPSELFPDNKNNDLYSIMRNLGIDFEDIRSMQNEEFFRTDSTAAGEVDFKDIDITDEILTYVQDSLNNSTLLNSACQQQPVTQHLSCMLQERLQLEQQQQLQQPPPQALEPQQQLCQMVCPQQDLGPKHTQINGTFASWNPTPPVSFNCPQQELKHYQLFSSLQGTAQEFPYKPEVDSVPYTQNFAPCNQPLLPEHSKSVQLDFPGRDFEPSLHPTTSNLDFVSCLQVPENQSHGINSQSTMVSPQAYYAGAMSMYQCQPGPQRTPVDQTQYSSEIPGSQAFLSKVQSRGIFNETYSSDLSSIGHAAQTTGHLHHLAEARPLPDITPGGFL
Description: In vitro assay 3: antagonism in mouse cell line (AHR transactivation, firefly luciferase reporter, kynurenic acid prestimulated). In kind it is cell-based. The procedure, abridged: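 Mouse cells stably carrying a DRE-driven, AHR-inducible firefly luciferase reporter were prestimulated with the endogenous agonist kynurenic acid before compound addition. Luciferase activity was measured by luminescence and normalized to positive and negative controls, with cells lacking kynurenic acid serving as full-inhibition control. Repeat tests are reported as mean or median.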

Setting [3] is: Hepa 1c1c7 cells, 200 μM kynurenic acid, 20 hours, firefly luciferase reporter, read-out: AHR Antagonism Mouse IC50.
Setting [4] is: mouse Hepa 1c1c7 cells, 200 μM kynurenic acid, 20 hours, read-out: AHR Antagonism Mouse IC50.

For the compound `COc1ccc(-c2nc3c4cccc(Br)c4nc(N[C@H](C)C(=O)N4CCO[C@@H](C)C4)n3n2)cc1` [Example 909, (2R)-2-{[7-bromo-2-(4-methoxyphenyl)[1,2,4]triazolo[1,5-c]quinazolin-5-yl]amino}-1-[(2S)-2-methylmorpholin-4-yl]propan-1-one], the 50% inhibitory concentration (IC50) against AHR [1] (firefly luciferase reporter) is 2.36e-09 M; on AHR [2] (setting [3]), 1.68 nM.
For the compound `COc1cccc(-c2nc3c4cc(F)ccc4nc(N[C@@H]4CCCCNC4=O)n3n2)c1` [Example 159, (3R)-3-{[9-fluoro-2-(3-methoxyphenyl)[1,2,4]triazolo[1,5-c]quinazolin-5-yl]amino}azepan-2-one], the results for the IC50 against AHR [1] and on AHR [2] (setting [4]) were 1.03e-09 M and 0.227 nM, respectively.
On to `Cc1cscc1-c1nc2c3ccccc3nc(N[C@@H]3CCNC3=O)n2n1` [Example 541], for which the IC50 is 3.5e-08 M on AHR [1] and 631 nM on AHR [2] (setting [4]).
`COc1ccc(-c2nc3c4cccc(Br)c4nc(N[C@H](C)C(=O)N4C[C@@H]5C[C@H]4CO5)n3n2)cc1` [Example 914, (2R)-2-{[7-bromo-2-(4-methoxyphenyl)[1,2,4]triazolo[1,5-c]quinazolin-5-yl]amino}-1-[(1S,4S)-2-oxa-5-azabicyclo[2.2.1]heptan-5-yl]propan-1-one]: the figures for the IC50 against AHR [1] (firefly luciferase reporter) and at AHR [2] (setting [3]) were 8.96e-10 M and 1.36 nM, respectively.
On to `O=C1NCCNC[C@H]1Nc1nc2c(C(F)(F)F)cccc2c2nc(-c3cnn(C4CC4)c3)nn12` [Example 963, (6R)-6-{[2-(1-cyclopropyl-1H-pyrazol-4-yl)-7-(trifluoromethyl)[1,2,4]triazolo[1,5-c]quinazolin-5-yl]amino}-1,4-diazepan-5-one], for which the concentration for half-maximal inhibition (IC50) on AHR [1] (firefly luciferase reporter) was 1.76e-09 M; at AHR [2] (setting [3]), 4.79 nM.
As for `C[C@@H](Nc1nc2c(Br)cccc2c2nc(-c3cnn(C)c3)nn12)C(=O)NCCN1CCNCC1` [Example 993, N^2-[7-bromo-2-(1-methyl-1H-pyrazol-4-yl)[1,2,4]triazolo[1,5-c]quinazolin-5-yl]-N-[2-(piperazin-1-yl)ethyl]-D-alaninamide-hydrogen chloride (1/2)], the values for the half-maximal inhibitory concentration (IC50) at AHR [1] (firefly luciferase reporter) and on AHR [2] (setting [3]) were 5.88e-07 M and 4590 nM, respectively.
As for `CS(=N)(=O)c1ccccc1-c1nc2c3ccccc3nc(N[C@@H]3CCCCNC3=O)n2n1` (single isomer, unassigned) [Example 662], the IC50 against AHR [1] worked out at 6.86e-08 M; at AHR [2] (read-out: AHR Antagonism Mouse IC50, mouse Hepa 1c1c7 cells, 200 μM kynurenic acid, 20 hours) it was 70.4 nM.
As to `COc1ccc(-c2nc3c4cccc(Br)c4nc(N[C@H](C)C(=O)O)n3n2)cc1` [Example 870], the IC50 was found to be 1.09e-08 M at AHR [1] (firefly luciferase reporter) and 10.7 nM on AHR [2] (setting [3]).
Turning to `Cc1nn(C)cc1-c1nc2c3cccc(Cl)c3nc(N[C@@H]3CCCCNC3=O)n2n1` [Example 821, (3R)-3-{[7-chloro-2-(1,3-dimethyl-1H-pyrazol-4-yl)[1,2,4]triazolo[1,5-c]quinazolin-5-yl]amino}azepan-2-one], the IC50 at AHR [1] (firefly luciferase reporter) came out at 2.98e-10 M; at AHR [2] (setting [3]), 0.739 nM.
Regarding `COc1ccc(-c2nc3c4ccccc4nc(N[C@H](C)C(=O)NCCN4CCOCC4)n3n2)cc1` [Example 779, N^2-[2-(4-methoxyphenyl)[1,2,4]triazolo[1,5-c]quinazolin-5-yl]-N-[2-(morpholin-4-yl)ethyl]-D-alaninamide], the IC50 against AHR [1] stood at 4.3e-09 M; on AHR [2] (setting [4]) it was 5.96 nM.
In the case of `COc1ccc(-c2nc3c4cccc(F)c4nc(N[C@@H]4CCCCNC4=O)n3n2)cc1` [Example 138, (3R)-3-{[7-fluoro-2-(4-methoxyphenyl)[1,2,4]triazolo[1,5-c]quinazolin-5-yl]amino}azepan-2-one], the IC50 at AHR [1] was determined as 7.41e-10 M; on AHR [2] (setting [4]) it was 1.45 nM.
For `CC[C@@H](Nc1nc2ccccc2c2nc(-c3cc(Br)ccc3OC(F)(F)F)nn12)C(N)=O` [Example 507, (2R)-2-({2-[5-bromo-2-(trifluoromethoxy)phenyl][1,2,4]triazolo[1,5-c]quinazolin-5-yl}amino)butanamide] the same measures were 3.44e-07 M and 41.2 nM.
